The source of these data is patent US8431704B2, “Quinoline or isoquinoline substituted P2X7 antagonists” (Janssen Pharmaceutica NV, priority 2008, dated 2013).

The first test concerns the target T1, hP2X7 (Homo sapiens, UniProt Q99572).
T1 construct: expressed in transfected cells; host or cells: 1321N1 astrocytoma cells
T1 sequence (Q99572 1-595): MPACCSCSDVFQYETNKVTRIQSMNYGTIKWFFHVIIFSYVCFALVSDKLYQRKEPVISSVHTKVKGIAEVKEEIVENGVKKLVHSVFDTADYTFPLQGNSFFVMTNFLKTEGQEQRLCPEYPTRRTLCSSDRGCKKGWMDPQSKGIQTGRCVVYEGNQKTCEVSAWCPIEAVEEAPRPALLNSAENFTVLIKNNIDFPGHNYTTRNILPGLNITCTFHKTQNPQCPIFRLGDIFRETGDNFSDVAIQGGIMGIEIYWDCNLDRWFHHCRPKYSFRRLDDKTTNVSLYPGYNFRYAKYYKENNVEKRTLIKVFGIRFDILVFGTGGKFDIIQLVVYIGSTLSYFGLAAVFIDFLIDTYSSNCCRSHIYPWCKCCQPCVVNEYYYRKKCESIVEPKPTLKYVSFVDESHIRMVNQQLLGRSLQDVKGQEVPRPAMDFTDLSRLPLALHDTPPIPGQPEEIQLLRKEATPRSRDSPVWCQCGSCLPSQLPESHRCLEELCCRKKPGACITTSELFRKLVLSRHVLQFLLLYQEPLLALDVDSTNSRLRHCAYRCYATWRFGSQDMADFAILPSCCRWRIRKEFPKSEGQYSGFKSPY
Nature of the test: P2X7 antagonism: ligand-induced Ca2+ flux in 1321N1 astrocytoma cells overexpressing hP2X7. The test is classed as cell-based. The settings on record: pIC50 = -log(IC50), read-out: hP2RX7pIC50 (mean pIC50 values) (converted). In short, it runs like this: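 Intracellular Ca2+ tracked with a quenched Ca2+-sensitive fluorescent dye kit (excitation 488 nm, emission 510-560 nm) in 1321N1 cells, before and after agonist addition in presence of antagonist. Effects expressed as % control and IC50.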
For orientation: A change in cytosolic calcium serves as a functional read-out for many receptors and channels.
As for `CC(C)Oc1ncc(C(CNC(=O)c2cccc3nc(N4CCN(C(C)C)CC4)ccc23)N2CCOCC2)cn1` (stereo not drawn) [Compound 289], the IC50 was 64.6 nM. Still for that read-out and setting: the result for `CCc1ncc(C(CNC(=O)c2cccc3nc(N4CCCC4)ccc23)N2CCOCC2)cn1` (stereo not drawn) [Compound 290] reads 135 nM; that for `CC(C)N1CCN(c2ccc3c(C(=O)NCC(c4cnc(OCC5CC5)nc4)N4CCC(F)(F)CC4)cccc3n2)CC1` (stereo not drawn) [Compound 291], 46.8 nM; that for `CCc1ncc(C(CNC(=O)c2cccc3nc(N4CCN(C(C)C)CC4)ccc23)N2CCC(F)(F)CC2)cn1` (stereo not drawn) [Compound 292], 115 nM. As for `O=C(NCC(c1cnc(C2CCCC2)nc1)N1CCC(F)(F)CC1)c1cccc2nc(NCC3CC3)ccc12` (stereo not drawn) [Compound 293], the IC50 was 105 nM. `O=C(NCC(c1cnc(OC2CCC2)nc1)N1CCC(F)(F)CC1)c1cccc2nc(NCC3CC3)ccc12` (stereo not drawn) [Compound 294]: the IC50 is 67.6 nM. `CCc1ncc(C(CNC(=O)c2cccc3nc(N4CCN(C(C)C)CC4)ccc23)N2CCOCC2)cn1` (stereo not drawn) [Compound 295]: the IC50 was 209 nM.

In the case of `CCc1ncc(C(CNC(=O)c2cccc3nc(NCC4CC4)ccc23)N2CCOCC2)cn1` (stereo not drawn) [Compound 296], the IC50 is 123 nM. On the same count and under the same terms, the result for `CC(C)N1CCN(c2ccc3c(C(=O)NCC(c4cncnc4)N4CCC(F)(F)CC4)cccc3n2)CC1` (stereo not drawn) [Compound 297] reads 32.4 nM; that for `CCOc1ncc(C(CNC(=O)c2cccc3nc(N4CCN(C(C)C)CC4)ccc23)N2CCC(F)(F)CC2)cn1` (stereo not drawn) [Compound 298], 45.7 nM. In the case of `CC(C)c1ncc(C(CNC(=O)c2cccc3nc(N4CCN(C(C)C)CC4)ccc23)N2CCC(F)(F)CC2)cn1` (stereo not drawn) [Compound 299], the IC50 is 110 nM. Same read-out and setting: the result for `CC(C)N1CCN(c2ccc3c(C(=O)NCC(c4cnc(OC5CCC5)nc4)N4CCC(F)(F)CC4)cccc3n2)CC1` (stereo not drawn) [Compound 300] reads 37.2 nM; that for `O=C(NCC(c1cnc(N2CCNCC2)nc1)N1CCC(F)(F)CC1)c1cccc2nc(N3CCCC3)ccc12` (stereo not drawn) [Compound 301], 166 nM. Take `CC(C)N1CCN(c2ccc3c(C(=O)NCC(c4cnc(N)nc4)N4CCC(F)(F)CC4)cccc3n2)CC1` (stereo not drawn) [Compound 302]: the IC50 was 81.3 nM. For `CCOc1ncc(C(CNC(=O)c2cccc3nc(N4CCCC4)ccc23)N2CCOCC2)cn1` (stereo not drawn) [Compound 303], the IC50 is 52.5 nM. Still for that read-out and setting: next, `O=C(NCC(c1cnc(OCC2CC2)nc1)N1CCC(F)(F)CC1)c1cccc2nc(N3CCCC3)ccc12` (stereo not drawn) [Compound 304]: 28.2 nM. As to `CC(C)Oc1ncc(C(CNC(=O)c2cccc3nc(N4CCCC4)ccc23)N2CCC(F)(F)CC2)cn1` (stereo not drawn) [Compound 305], the IC50 was 100 nM. Still for that read-out and setting: next, `CC(C)Oc1ncc(C(CNC(=O)c2cccc3nc(N4CCN(C(C)C)CC4)ccc23)N2CCC(F)(F)CC2)cn1` (stereo not drawn) [Compound 306]: 46.8 nM. Same read-out and setting: the result for `O=C(NCC(c1cnc(C2CCCC2)nc1)N1CCC(F)(F)CC1)c1cccc2nc(N3CCCC3)ccc12` (stereo not drawn) [Compound 307] reads 45.7 nM; that for `CC(C)c1ncc(C(CNC(=O)c2cccc3nc(N4CCCC4)ccc23)N2CCC(F)(F)CC2)cn1` (stereo not drawn) [Compound 308], 49 nM. On the same count and under the same terms, the result for `CC(=O)N1CCN(c2ncc(C(CNC(=O)c3cccc4nc(N5CCN(C(C)C)CC5)ccc34)N3CCC(F)(F)CC3)cn2)CC1` (stereo not drawn) [Compound 309] reads 74.1 nM. As to `CCOc1ncc(C(CNC(=O)c2cccc3nc(N4CCN(C(C)C)CC4)ccc23)N2CCOCC2)cn1` (stereo not drawn) [Compound 310], the IC50 is 56.2 nM.

In the case of `CCc1ncc(C(CNC(=O)c2cccc3nc(N4CCOCC4)ccc23)N2CCOCC2)cn1` (stereo not drawn) [Compound 311], the IC50 is 112 nM.

Consider `CC(C)N1CCN(c2ccc3c(C(=O)NCC(c4cnc(N5CCNCC5)nc4)N4CCC(F)(F)CC4)cccc3n2)CC1` (stereo not drawn) [Compound 312], for which the IC50 was 105 nM. On the same count and under the same terms, next, `O=C(NCC(c1cnc(OC2CCC2)nc1)N1CCOCC1)c1cccc2nc(N3CCOCC3)ccc12` (stereo not drawn) [Compound 313]: 117 nM; `O=C(NCC(c1cnc(C2CCCC2)nc1)N1CCOCC1)c1cccc2nc(N3CCOCC3)ccc12` (stereo not drawn) [Compound 314]: 151 nM. As to `O=C(NCC(c1cnc(-c2ccccc2)nc1)N1CCOCC1)c1cccc2nc(N3CCOCC3)ccc12` (stereo not drawn) [Compound 315], the IC50 is 42.7 nM.

Another test deals with T2, P2X7 (Homo sapiens, UniProt Q99572).
T2 construct: endogenous in cells; host or cells: THP-1 human monocytic cell line
T2 sequence (Q99572 1-595): T1 sequence (Q99572 1-595)
Put plainly: THP-1 YoPro uptake assay (BzATP-stimulated Yo-Pro-1 uptake). The test is classed as cell-based. Conditions: Table F-10, THP-1 cells, read-out: mean pIC50 values for P2X7 antagonism (converted). On the procedure:
The human monocytic cell line THP-1 was grown as a suspension culture in RPMI medium supplemented with 10% fetal bovine serum, penicillin/streptomycin (50 units/mL), 2 mM L-glutamine, and 20 μM 2-mercaptoethanol. Cells were maintained at a density below 0.5 million per mL. On the day of the assay, cells were washed twice with assay buffer, and then resuspended at 2 million per mL in assay buffer containing 2 μM Yo-Pro-1 (Invitrogen). The assay buffer contained (in mM): 280 sucrose, 5 KCl, 10 glucose, 10 HEPES, 5 N-methyl-D-glucamine. The cells were added at 200 k/well into poly-D-lysine-coated black-walled 96-well plates (Biocoat, Becton-Dickinson). Test compounds were dissolved in DMSO, and then added at the test concentration to each well of the 96-well plate. Concentration dependence of block was determined by exposing each well of cells in duplicate rows of a 96-well plate to a serial dilution of test compound. The concentration series usually started at 10 μM with a three-fold decrement in concentration. The final DMSO concentration seen by the cells was less than 0.5%. Cells were incubated with test compounds for 30 minutes at 37° C. A background reading was taken using a Gemini SpectraMax with 490 nm excitation and 530 nm emission. […] After incubation for 60 minutes at 37° C., an endpoint read was taken in the SpectraMax plate reader. The amount of block of the response was determined by comparing the fluorescence intensity in each well to the average of control wells on each plate. The control wells contained either a known antagonist of P2X7 (positive controls) or a concentration of DMSO equal to that in the test wells. Data were analyzed using a nonlinear regression program (Origin, OriginLab, MA). Results are reported as the −log of the IC50 (pIC50).
As to `O=C(NCC(c1cnc(C(F)(F)F)nc1)N1CCC(F)(F)CC1)c1c(Cl)ccc2nc(N3CCOCC3)ccc12` (stereo not drawn) [Compound 403], the IC50 was 14.8 nM. Still for that read-out and setting: the result for `CN(C)[C@@H]1CCN(c2ccc3c(C(=O)NCC(c4cnc(C(F)(F)F)nc4)N4CCOCC4)c(Cl)ccc3n2)C1` (stereo partly drawn) [Compound 406] reads 8.71 nM. The same measure, in the same setting: the result for `CN(C)[C@H]1CCN(c2ccc3c(C(=O)NCC(c4cnc(C(F)(F)F)nc4)N4CCOCC4)c(Cl)ccc3n2)C1` (stereo partly drawn) [Compound 407] reads 7.41 nM. Turning to `CC(C)CN1CCN(c2ccc3c(C(=O)NCC(c4cnc(C(F)(F)F)nc4)N4CCOCC4)c(Cl)ccc3n2)CC1` (stereo not drawn) [Compound 408], the IC50 is 6.76 nM.

Turning to `O=C(NCC(c1cnc(C(F)(F)F)nc1)N1CCOCC1)c1c(Cl)ccc2nc(N3CCN(C4CC4)CC3)ccc12` (stereo not drawn) [Compound 409], the IC50 was 3.39 nM. With `CC(C)N1CCN(c2ccc3c(C(=O)NCC(c4cnc(C(F)(F)F)nc4)N4CCOCC4)c(Cl)ccc3n2)CC1` (stereo not drawn) [Compound 410], the IC50 is 5.01 nM. Still for that read-out and setting: the result for `CCN1CCN(c2ccc3c(C(=O)NCC(c4cnc(C(F)(F)F)nc4)N4CCOCC4)c(Cl)ccc3n2)CC1` (stereo not drawn) [Compound 411] reads 5.62 nM; that for `CN(C)CCNc1ccc2c(C(=O)NCC(c3cnc(C(F)(F)F)nc3)N3CCOCC3)c(Cl)ccc2n1` (stereo not drawn) [Compound 412], 5.13 nM. Regarding `N[C@@H]1CCCN(c2ccc3c(C(=O)NCC(c4cnc(C(F)(F)F)nc4)N4CCOCC4)c(Cl)ccc3n2)C1` (stereo partly drawn) [Compound 413], the IC50 is 5.13 nM. With `O=C(NCC(c1cnc(C(F)(F)F)nc1)N1CCOCC1)c1c(Cl)ccc2nc(N3CCCCC3)ccc12` (stereo not drawn) [Compound 414], the IC50 is 4.17 nM. Still for that read-out and setting: the result for `O=C(NCC(c1cnc(C(F)(F)F)nc1)N1CCOCC1)c1c(Cl)ccc2nc(N3CCCC3)ccc12` (stereo not drawn) [Compound 415] reads 2.4 nM; that for `O=C(NCC(c1cnc(C(F)(F)F)nc1)N1CCOCC1)c1c(Cl)ccc2nc(N3CCC3)ccc12` (stereo not drawn) [Compound 416], 1.74 nM. Same read-out and setting: next, `N[C@@H]1CCCN(c2ccc3c(C(=O)NCC(c4cnc(C(F)(F)F)nc4)N4CCC(F)(F)CC4)c(Cl)ccc3n2)C1` (stereo partly drawn) [Compound 423]: 1.12 nM; `N[C@H]1CCCN(c2ccc3c(C(=O)NCC(c4cnc(C(F)(F)F)nc4)N4CCC(F)(F)CC4)c(Cl)ccc3n2)C1` (stereo partly drawn) [Compound 424]: 2.24 nM; `O=C(NCC(c1cnc(C(F)(F)F)nc1)N1CCC(F)(F)CC1)c1c(Cl)ccc2nc(N3CCN(C4CC4)CC3)ccc12` (stereo not drawn) [Compound 425]: 6.31 nM. On the same count and under the same terms, the result for `CC(C)CN1CCN(c2ccc3c(C(=O)NCC(c4cnc(C(F)(F)F)nc4)N4CCC(F)(F)CC4)c(Cl)ccc3n2)CC1` (stereo not drawn) [Compound 426] reads 5.75 nM. `CC(C)N1CCN(c2ccc3c(C(=O)NCC(c4cnc(C(F)(F)F)nc4)N4CCC(F)(F)CC4)c(Cl)ccc3n2)CC1` (stereo not drawn) [Compound 427]: the IC50 is 3.39 nM. The same measure, in the same setting: next, `CCN1CCN(c2ccc3c(C(=O)NCC(c4cnc(C(F)(F)F)nc4)N4CCC(F)(F)CC4)c(Cl)ccc3n2)CC1` (stereo not drawn) [Compound 428]: 3.24 nM; `O=C(NCC(c1cnc(C(F)(F)F)nc1)N1CCOCC1)c1c(Cl)ccc2nc(NCCCO)ccc12` (stereo not drawn) [Compound 430]: 22.4 nM. Same read-out and setting: the result for `O=C(NCC(c1cnc(C(F)(F)F)nc1)N1CCOCC1)c1c(Cl)ccc2nc(NCC3CCCO3)ccc12` (stereo not drawn) [Compound 432] reads 100000 nM; that for `CNCCCN(C)c1ccc2c(C(=O)NCC(c3cnc(C(F)(F)F)nc3)N3CCOCC3)c(Cl)ccc2n1` (stereo not drawn) [Compound 433], 11.5 nM.
